Measurements: patent US7169393B2, “Antigenic peptide fragments of VapA protein, and uses thereof” (Rural Industries Research & Development Coporation, priority 2000, dated 2007)

Tested on: antibodies in sera of foals (goat anti-horse IgG detection)
Experiment: Peptide ELISA: biotinylated overlapping VapA peptides screened with foal sera
Type: binding
Details: for number of positive sera recognizing (positive with) the peptide: fifty-one positive sera (foals with current R. equi disease), 1 in 250, positive = at least twice background OD at 450 nm
Source text: Biotinylated peptides synthesized by Mimotopes, Victoria, Australia were used in all assays. The peptide bank used in the initial screening of sera was designed based upon the published sequence of VapA (Genbank accession No: D21236). A total of 50 overlapping peptides, each 11 amino acid residues in length (offset by 3 residues at a time) were synthesized beginning from the predicted signal peptide cleavage site between amino acids 31 and 32 up to and including the C terminus.
A total of seventy foal sera, most of these from animals aged between 4 to 12 weeks, were used to screen the peptides. Fifty-one sera were from foals with current R. equi disease (positive sera). Sixteen sera were from foals with no known history of R. equi infection and three sera were from foals that had recovered from R. equi infection 10 months previously (negative sera). Thirty-nine of the positive sera and all negative sera were obtained from studs in South Australia and New South Wales, Australia.
Biotin-SGSG(spacer) labelled peptide units were used as antigen targets. Neutravidin bound to the surface of a micro-titre plate was then used to bind the biotin labelled peptide to the plate. The procedure is as follows:
A solution of neutravidin was diluted 1 in 300 in sterile distilled water to a final concentration of 3.3 μg/ml, and 100 μl per well was added to a micro-titre plate and the plate was left overnight at 37° C. 200 μl 1% casein/1×PBS/0.05% Tween 20 was then added to each well and the plate was left for at least 1 hour at room temperature (or at 4° C. if left longer) before the solution in the plate was flicked out. The plate was then washed five times with 1×PBS/0.05% Tween 20 using an automatic plate washer and the plates were dried by slapping against absorbent paper. […]
The plate was then read using an ELISA plate reader at 450 nm.
Interpretation of data. […] The background OD was the mean of the lowest 50% of all OD values obtained with that particular serum and all OD readings that were twice this value were considered positive. […]

## NLQKDEPNGRA [Seq I.D. No. 47]
  number of positive sera recognizing (positive with) the peptide: fifty-one
fifty-one positive sera, fifty-peptide bank
  number of positive sera positive with only this peptide: two

## YLNINFFDSSG [Seq I.D. No. 133]
  number of positive sera recognizing (positive with) the peptide: Ten
